Here are results for 16 compounds from patent US8772504B2, “Substituted benzoxazole, benzimidazole, oxazolopyridine and imidazopyridine derivatives as gamma secretase modulators” (Janssen Pharmaceuticals, Inc., priority 2009, dated 2014).

Common to all, as to type: cell-based
For assay [1], the system named is Aβtotal. In words: Screening for γ-secretase-modulating activity, Method 1: Aβtotal sandwich ELISA on SKNBE2 cell media. Conditions: SKNBE2 cells carrying APP 695 wild type. The method in brief:
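SKNBE2 cells expressing wild-type APP 695 were treated with compound for 18 hours. Aβtotal in the medium was measured by sandwich ELISA (6E10 capture, biotinylated 4G8 detection, fluorogenic peroxidase read-out). IC50 came from a 4-parameter fit of % inhibition with top/bottom fixed at 100/0 and Hill slope 1, or as averaged IC50 from % of untreated control.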
(In general: ELISA stands for enzyme-linked immunosorbent assay.)

Assay [2] concerns Aβtotal. The assay can be described thus: Screening for γ-secretase-modulating activity, Method 2: Aβtotal Alphalisa on SKNBE2 cell supernatant. The note with it: Method 2, Table 3c, SKNBE2 cells carrying APP 695 wild type, overnight incubation. The method in brief: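 SKNBE2 cells expressing wild-type APP695, plated at 10^4 cells/well with compound at several concentrations and incubated overnight at 37° C. Aβ42 (C-terminal capture, N-terminal biotinylated detection) and Aβtotal (N-terminal/4G8 pair) measured in supernatant by AlphaLISA. IC50 from 4-parameter fit of percent of compound-free control.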
A general note: Alpha assays give light when donor and acceptor beads are brought close together.

The test system of another assay is Aβ42. In words: Screening for γ-secretase-modulating activity, Method 1: Aβ42 sandwich ELISA on SKNBE2 cell media. Conditions: SKNBE2 cells carrying APP 695 wild type. The method in brief:
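SKNBE2 cells expressing wild-type APP695 were treated with compound for 18 h in Ultraculture/1% glutamine. Secreted Aβ42 was quantified by sandwich ELISA (C-terminal capture, biotinylated 3D6, TMB, 450 nm), with WST-1 used as a toxicity check. IC50 was derived from 4-parameter fits of % inhibition or % of untreated control.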

[3] abbreviates: Homo sapiens, Table 3a, 18 hours, XLfit, top/bottom fixed to 100 and 0, hill slope 1.
[4] abbreviates: Homo sapiens, Table 3b, non-linear regression of % of control, averaged IC50 values.
Where [5] appears, read: Table 3a, 18 hours, XLfit, top/bottom fixed to 100 and 0, hill slope 1.
The mark [6] stands for this setting: Table 3b, non-linear regression of % of control, averaged IC50 values.

The structures appear in SMILES notation. A value given as a limit tells only on which side of the number the result lay.

On to `COc1cc(Nc2cccc3c2nc(-c2ccc(F)cc2)n3C)ccc1-n1cnc(C)c1` [Compound 1], for which the half-maximal inhibitory concentration (IC50) (usually the concentration that gives 50% inhibition) in the assay on Aβtotal [1] (setting [3]) is over 1 µM; in the assay with Aβtotal [1] (setting [4]), 13.5 µM; in the assay with Aβtotal [2] (Homo sapiens), 0.59 µM; in the assay with Aβ42 (setting [3]), 0.022 µM; with Aβ42 (setting [4]), 0.021 µM.
Taken in the same sequence, the figures for `COc1cc(Nc2cccc3c2nc(-c2ccc(F)cc2)n3C)ccc1-n1cnc(C)n1` [Compound 4] were over 3 µM, over 3 µM, over 10 µM, 0.023 µM and 0.022 µM.
Taken in the same sequence, the figures for `COc1cc(Nc2nccc3c2nc(-c2ccc(F)cc2)n3C)ccc1-n1cnc(C)c1` [Compound 8] were over 3 µM, over 3 µM, over 10 µM, 0.022 µM and 0.022 µM.
On to `COc1nc(Nc2cccc3c2nc(-c2ccc(F)cc2)n3C)ccc1-n1cnc(C)c1` [Compound 15], for which the IC50 is over 3 µM in the assay with Aβtotal [1] (setting [3]); over 3 µM in the assay on Aβtotal [1] (setting [4]); 7.94 µM in the assay on Aβtotal [2] (Homo sapiens); 0.006 µM with Aβ42 (setting [3]); 0.008 µM in the assay with Aβ42 (setting [4]).
In the case of `CCn1c(CC2CC2)nc2c(Nc3ccc(-n4cnc(C)c4)c(OC)c3)cccc21` [Compound 36], the IC50 in the assay on Aβtotal [1] (setting [5]) was over 3 µM; in the assay with Aβtotal [1] (setting [6]), over 3 µM; in the assay with Aβtotal [2], 7.41 µM; with Aβ42 (setting [5]) it was 0.031 µM; with Aβ42 (setting [6]), 0.028 µM.
As to `COc1cc(Nc2cccc3c2nc(Oc2ccccc2)n3C)ccc1-n1cnc(C)c1` [Compound 61], the 50% inhibitory concentration (IC50) with Aβtotal [1] (setting [5]) is over 3 µM; in the assay with Aβtotal [1] (setting [6]), over 3 µM; in the assay on Aβtotal [2], 8.51 µM; in the assay with Aβ42 (setting [5]), 0.063 µM; with Aβ42 (setting [6]), 0.059 µM.
As to `Cc1cn(-c2ccc(Nc3cccc4c3nc(-c3ccc(F)cc3)n4C)cc2F)cn1` [Compound 67], the IC50 is over 3 µM in the assay on Aβtotal [1] (setting [5]); over 3 µM in the assay with Aβtotal [1] (setting [6]); over 10 µM with Aβtotal [2]; 0.012 µM in the assay with Aβ42 (setting [5]); 0.008 µM in the assay with Aβ42 (setting [6]).
For the compound `Cc1ncn(-c2ccc(Nc3cccc4c3nc(-c3ccc(F)cc3)n4C(C)C)cc2)n1.Cl.Cl` [Compound 73], the 50% inhibitory concentration (IC50) is over 3 µM in the assay on Aβtotal [1] (setting [5]); over 3 µM with Aβtotal [1] (setting [6]); over 10 µM with Aβtotal [2]; 0.096 µM in the assay on Aβ42 (setting [5]); 0.089 µM in the assay on Aβ42 (setting [6]).
For `COc1cc(Nc2cccc3c2nc(-c2ccc(F)cc2)n3C(C)C)ccc1-n1cnc(C)n1.Cl.Cl` [Compound 75], the IC50 is over 3 µM in the assay with Aβtotal [1] (setting [5]); over 3 µM in the assay on Aβtotal [1] (setting [6]); 7.76 µM in the assay with Aβtotal [2]; 0.019 µM in the assay with Aβ42 (setting [5]); 0.019 µM in the assay on Aβ42 (setting [6]).
For the compound `Cc1ncn(-c2ccc(Nc3cccc4c3nc(-c3ccc(F)cc3)n4C(C)C)cn2)n1` [Compound 76], the IC50 in the assay on Aβtotal [1] (setting [5]) is over 3 µM; in the assay with Aβtotal [1] (setting [6]), over 10 µM; with Aβtotal [2], over 10 µM; in the assay on Aβ42 (setting [5]), 0.048 µM; in the assay on Aβ42 (setting [6]), 0.046 µM.
Turning to `COc1cc(Nc2nccc3c2nc(-c2ccc(F)cc2)n3C)ccc1-n1cnc(C)n1` [Compound 92], the IC50 is over 10 µM in the assay with Aβtotal [1] (setting [5]); over 10 µM in the assay with Aβtotal [1] (setting [6]); 4.27 µM in the assay with Aβtotal [2]; 0.129 µM in the assay with Aβ42 (setting [5]); 0.129 µM in the assay on Aβ42 (setting [6]).
For `COc1cc(Nc2cc(C(C)C)nc3c2nc(-c2ccc(F)cc2)n3C)ccc1-n1cnc(C)n1` [Compound 110], the concentration for half-maximal inhibition (IC50) was over 3 µM in the assay on Aβtotal [1] (setting [3]); 1.17 µM in the assay with Aβtotal [1] (setting [4]); over 10 µM with Aβtotal [2] (Homo sapiens); 0.004 µM in the assay with Aβ42 (setting [3]); 0.018 µM with Aβ42 (setting [4]).
For `COc1cc(-c2nc3c(Nc4ccc(-n5cnc(C)n5)c(OC)c4)nccc3n2C)ccc1Cl` [Compound 114], in that order: over 3 µM, over 3 µM, 3.89 µM, 0.01 µM and 0.054 µM.
With `COc1nc(Nc2cc(F)cc3c2nc(-c2ccc(F)cc2)n3C)ccc1-n1cnc(C)c1` [Compound 115], the figures for the IC50 in the assay on Aβtotal [1] (setting [5]), with Aβtotal [2] and in the assay on Aβ42 (setting [5]) were over 10 µM, over 10 µM and 0.002 µM, respectively.
As for `COc1cc(Nc2nccc3c2nc(-c2ccccc2C(F)(F)F)n3C)ccc1-n1cnc(C)n1` [Compound 130], the IC50 in the assay on Aβtotal [1] (setting [6]) is over 3 µM; in the assay on Aβtotal [2], over 10 µM; in the assay on Aβ42 (setting [6]), 0.069 µM.
Regarding `COc1cc(Nc2nc(C)cc3c2nc(-c2ccc(F)cc2)n3C)ccc1-n1cnc(C)n1` [Compound 164], the results for the IC50 in the assay with Aβtotal [1] (setting [6]), in the assay on Aβtotal [2] and in the assay with Aβ42 (setting [6]) were over 3 µM, over 10 µM and 0.032 µM, respectively.
